Source: US7547799B1, “Method for producing phenolic compound” (Sabic Innovative Plastics IP B.V., priority 2008, dated 2009)

Test: Determination of the solubility of BMSC in MeOH at 65° C. (with reflux)
Assay type: physicochemical
Experimental: Determination of the Solubility of BMSC in MeOH at 65° C. (with Reflux):
BMSC was loaded in a round bottom flask, a small amount of MeOH was added to the BMSC, to form a slurry. This mixture was heated up to 65° C. under reflux. MeOH was then continuously added under vigorous stirring, until a lucid and colorless solution was obtained.

- solubility of BMSC in MeOH (lucid and colorless solution obtained) (65° C., under reflux, vigorous stirring): 5.8 mass %
- solution of BMSC in MeOH obtainable under reflux (restated in the discussion): 6%
Structure (SMILES): COC(=O)c1ccccc1OC(=O)Oc1ccccc1C(=O)OC [BMSC, bismethylsalicylcarbonate]
